Reference: PubChem BioAssay AID248 (DTP/NCI, 2004)
Where “and” joins values, the source holds several entries; their conditions need not be identical. Identical values can stand only once. Inconclusive results and toxic doses are left out. Peptide text beside a SMILES is read from it.

Tested on: L1210 leukemia ip in BDF1 mice, survival T/C
Assay: NCI In Vivo Anticancer Drug Screen. Data for tumor model L1210 Leukemia (intraperitoneal) in B6D2F1 (BDF1) mice
Details: endpoint: mean survival time, higher = longer survival
How it was run: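 Survival endpoint. Drug-treated group vs vehicle group, expressed as T divided by C. Tumor passaged by transplantation.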

[1] = dose: 100.0 mg/kg/injection, schedule: Q01DX001 (ip), vehicle: saline
[2] = dose: 200.0 mg/kg/injection, schedule: Q01DX001 (ip), vehicle: saline
[3] = dose: 400.0 mg/kg/injection, schedule: Q01DX001 (ip), vehicle: saline
[4] = dose: 100.0 mg/kg/injection, schedule: Q01DX009 (ip), vehicle: saline with Tween-80
[5] = dose: 50.0 mg/kg/injection, schedule: Q01DX001 (ip), vehicle: saline
[6] = dose: 100.0 mg/kg/injection, schedule: Q01DX001 (ip), vehicle: saline with Tween-80
[7] = dose: 200.0 mg/kg/injection, schedule: Q01DX001 (ip), vehicle: saline with Tween-80

For `CCN(CC)C(=O)C1C2CCC(C2)C1C(=O)N(CC)CC` (stereo not given), the T/C (dose: 100.0 mg/kg/injection, schedule: Q04DX003 (ip), vehicle: saline) was 100 % of control, the T/C (dose: 200.0 mg/kg/injection, schedule: Q04DX003 (ip), vehicle: saline) was 100 % of control and the T/C (dose: 400.0 mg/kg/injection, schedule: Q04DX003 (ip), vehicle: saline) was 100 % of control.
For `C[n+]1c(O)c(C(=O)CCl)n2ccccc21`, the T/C (dose: 100.0 mg/kg/injection, schedule: Q01DX009 (ip), vehicle: saline) was 94 % of control, the T/C (dose: 200.0 mg/kg/injection, schedule: Q01DX009 (ip), vehicle: saline) was 91 % of control and the T/C (dose: 400.0 mg/kg/injection, schedule: Q01DX009 (ip), vehicle: saline) was 92 % of control.
For `CSc1ncnc2c1ncn2C1OC(CCc2ccccc2)C(O)C1O` (stereo not given), the T/C (dose: 100.0 mg/kg/injection, schedule: Q01DX001 (ip), vehicle: Klucel (hydroxypropylcellulose) (HPC)) was 100 % of control, the T/C (dose: 200.0 mg/kg/injection, schedule: Q01DX001 (ip), vehicle: Klucel (hydroxypropylcellulose) (HPC)) was 96 % of control and the T/C (dose: 400.0 mg/kg/injection, schedule: Q01DX001 (ip), vehicle: Klucel (hydroxypropylcellulose) (HPC)) was 98 % of control.
In the case of `CCCCSC(=N)N`, the T/C [1] is reported as 94 % of control.
`CCCCC(=O)N/N=C/c1ccc(Cl)c(Cl)c1` was tested, and the T/C (dose: 100.0 mg/kg/injection, schedule: Q01DX001 (ip), vehicle: carboxymethylcellulose (CMC)) was 88 % of control, the T/C (dose: 200.0 mg/kg/injection, schedule: Q01DX001 (ip), vehicle: carboxymethylcellulose (CMC)) was 110 % of control and the T/C (dose: 400.0 mg/kg/injection, schedule: Q01DX001 (ip), vehicle: carboxymethylcellulose (CMC)) was 91 % of control.
In the case of `CCCCCCCNc1ccc(S(=O)(=O)c2ccc(NCCCCCCC)c([N+](=O)[O-])c2)cc1[N+](=O)[O-]`, the T/C (dose: 25.0 mg/kg/injection, schedule: Q01DX009 (ip), vehicle: DMSO) is reported as 94 % of control, the T/C (dose: 50.0 mg/kg/injection, schedule: Q01DX009 (ip), vehicle: DMSO) is reported as 98 % of control and the T/C (dose: 100.0 mg/kg/injection, schedule: Q01DX005 (ip), vehicle: DMSO) is reported as 90 % of control. For the same molecule, the T/C (dose: 100.0 mg/kg/injection, schedule: Q01DX009 (ip), vehicle: DMSO) was 94 % of control and 98 % of control, the T/C (dose: 100.0 mg/kg/injection, schedule: Q04DX002 (ip), vehicle: DMSO) was 100 % of control and the T/C (dose: 200.0 mg/kg/injection, schedule: Q01DX009 (ip), vehicle: DMSO) was 101 % of control. For the same molecule, the T/C (dose: 200.0 mg/kg/injection, schedule: Q04DX002 (ip), vehicle: DMSO) was 88 % of control, the T/C (dose: 400.0 mg/kg/injection, schedule: Q01DX005 (ip), vehicle: DMSO) was 90 % of control and the T/C (dose: 400.0 mg/kg/injection, schedule: Q01DX009 (ip), vehicle: DMSO) was 100 % of control. The T/C (dose: 400.0 mg/kg/injection, schedule: Q04DX002 (ip), vehicle: DMSO) was 96 % of control.
With `CC(C)(C)N(N)Cc1ccccc1` the T/C [1] was 106 % of control, the T/C [2] was 95 % of control and the T/C [3] was 104 % of control.
In the case of `Cc1nc2c(O)cccn2c(=O)c1Cl`, the T/C (dose: 25.0 mg/kg/injection, schedule: Q01DX009 (ip), vehicle: saline with Tween-80) is reported as 92 % of control, the T/C (dose: 50.0 mg/kg/injection, schedule: Q01DX009 (ip), vehicle: saline with Tween-80) is reported as 94 % of control and the T/C [4] is reported as 97 % of control.
For `CC1OC(OC2C(O[C@H]3CC[C@@]4(C)C(=CC[C@H]5[C@@H]6C[C@@H]7O[C@]8(CC[C@H](C)CN8)[C@@H](C)[C@@H]7[C@@]6(C)CC[C@@H]54)C3)OC(CO)C(O)C2OC2OC(CO)C(O)C(O)C2O)C(O)C(O)C1O` (stereo not given in full), the T/C (dose: 5.0 mg/kg/injection, schedule: Q01DX001 (ip), vehicle: other) was 97 % of control, the T/C (dose: 10.0 mg/kg/injection, schedule: Q01DX001 (ip), vehicle: other) was 109 % of control and the T/C (dose: 20.0 mg/kg/injection, schedule: Q01DX001 (ip), vehicle: other) was 106 % of control.
In the case of `CC(=O)C(C(C)=O)C(C)(C)C`, the T/C [5] is reported as 95 % of control, the T/C [1] is reported as 97 % of control and the T/C [2] is reported as 90 % of control. The T/C [3] was 95 % of control.
`Brc1ccc2c(c1)-c1ccccc1C1=NCCN12` was tested, and the T/C (dose: 5.0 mg/kg/injection, schedule: Q01DX009 (ip), vehicle: Klucel (hydroxypropylcellulose) (HPC)) was 100 % of control, the T/C (dose: 10.0 mg/kg/injection, schedule: Q01DX009 (ip), vehicle: Klucel (hydroxypropylcellulose) (HPC)) was 101 % of control and the T/C (dose: 20.0 mg/kg/injection, schedule: Q04DX003 (ip), vehicle: Klucel (hydroxypropylcellulose) (HPC)) was 86 % of control.
For `CC(C)(C)C1=CC(=O)C(Cl)(C(C)(C)C)C(Cl)C1=O` (stereo not given), the T/C [6] was 97 % of control and the T/C [7] was 90 % of control.
With `Cc1c2ccccc2[n+](C)c2ccc3ccccc3c12` the T/C (dose: 75.0 mg/kg/injection, schedule: Q01DX001 (ip), vehicle: carboxymethylcellulose (CMC)) was 94 % of control, the T/C (dose: 150.0 mg/kg/injection, schedule: Q01DX001 (ip), vehicle: carboxymethylcellulose (CMC)) was 94 % of control and the T/C (dose: 300.0 mg/kg/injection, schedule: Q01DX001 (ip), vehicle: carboxymethylcellulose (CMC)) was 96 % of control.
With `O=[N+]([O-])c1ccc(/C=C/c2ccccc2)c(Cl)c1` the T/C [6] was 95 % of control, the T/C [7] was 102 % of control and the T/C (dose: 400.0 mg/kg/injection, schedule: Q01DX001 (ip), vehicle: saline with Tween-80) was 95 % of control.
`CC(=O)NC(CO)C(=O)NCC(=O)NC(CCCN=C(N)N)C(N)=O` (stereo not drawn) (Ac-Ser-Gly-Arg-NH2; configuration not given here) was tested, and the T/C (dose: 25.0 mg/kg/injection, schedule: Q04DX002 (ip), vehicle: Klucel (hydroxypropylcellulose) (HPC)) was 100 % of control, the T/C (dose: 50.0 mg/kg/injection, schedule: Q04DX002 (ip), vehicle: Klucel (hydroxypropylcellulose) (HPC)) was 100 % of control and the T/C (dose: 100.0 mg/kg/injection, schedule: Q04DX002 (ip), vehicle: Klucel (hydroxypropylcellulose) (HPC)) was 100 % of control.
`CN(C)C(=O)NCc1ccco1` was tested, and the T/C (dose: 12.5 mg/kg/injection, schedule: Q04DX003 (ip), vehicle: saline) was 97 % of control, the T/C (dose: 25.0 mg/kg/injection, schedule: Q04DX003 (ip), vehicle: saline) was 95 % of control and the T/C (dose: 50.0 mg/kg/injection, schedule: Q04DX003 (ip), vehicle: saline) was 101 % of control.
With `O=C(Nc1cc2c(cc1Br)OCO2)C(Cl)Cl` the T/C [4] was 95 % of control, the T/C (dose: 200.0 mg/kg/injection, schedule: Q01DX009 (ip), vehicle: saline with Tween-80) was 120 % of control and the T/C (dose: 400.0 mg/kg/injection, schedule: Q01DX009 (ip), vehicle: saline with Tween-80) was 92 % of control.
For `COC(=O)NC1CC=CCC1I` (stereo not given), the T/C (dose: 100.0 mg/kg/injection, schedule: Q04DX003 (ip), vehicle: saline with Tween-80) was 100 % of control, the T/C (dose: 200.0 mg/kg/injection, schedule: Q04DX003 (ip), vehicle: saline with Tween-80) was 102 % of control and the T/C (dose: 400.0 mg/kg/injection, schedule: Q04DX003 (ip), vehicle: saline with Tween-80) was 102 % of control.
`CCOC(=O)CCCCCCCCCC[N+](CC)(CC)CC(=O)c1ccc(NC(C)=O)cc1` was tested, and the T/C (dose: 75.0 mg/kg/injection, schedule: Q01DX001 (ip), vehicle: other) was 96 % of control and the T/C (dose: 150.0 mg/kg/injection, schedule: Q01DX001 (ip), vehicle: other) was 101 % of control.
With `OCC1OC(n2cnc3c(=S)nc[nH]c32)CC1O` (stereo not given) the T/C (dose: 8.0 mg/kg/injection, schedule: Q01DX015 (ip), vehicle: saline) was 103 % of control, the T/C (dose: 16.0 mg/kg/injection, schedule: Q01DX015 (ip), vehicle: saline) was 108 % of control and the T/C (dose: 32.0 mg/kg/injection, schedule: Q01DX015 (ip), vehicle: saline) was 115 % of control. The T/C [5] was 104 % of control, the T/C (dose: 64.0 mg/kg/injection, schedule: Q01DX015 (ip), vehicle: saline) was 122 % of control and the T/C [1] was 106 % of control. For the same molecule, the T/C (dose: 178.0 mg/kg/injection, schedule: Q01DX001 (ip), vehicle: saline) was 113 % of control, the T/C (dose: 180.0 mg/kg/injection, schedule: Q01DX015 (ip), vehicle: saline) was 156 % of control and the T/C [2] was 115 % of control. The T/C (dose: 267.0 mg/kg/injection, schedule: Q01DX001 (ip), vehicle: saline) was 108 % of control, the T/C (dose: 300.0 mg/kg/injection, schedule: Q01DX015 (ip), vehicle: saline) was 154 % of control and 156 % of control and the T/C [3] was 121 % of control. The T/C (dose: 600.0 mg/kg/injection, schedule: Q01DX015 (ip), vehicle: saline) was 163 % of control.
In the case of `CCOC(=O)C(=Cc1ccc(Cl)cc1)C(=O)OCC`, the T/C (dose: 25.0 mg/kg/injection, schedule: Q01DX009 (ip), vehicle: Klucel (hydroxypropylcellulose) (HPC)) is reported as 95 % of control, the T/C (dose: 50.0 mg/kg/injection, schedule: Q01DX009 (ip), vehicle: Klucel (hydroxypropylcellulose) (HPC)) is reported as 97 % of control and the T/C (dose: 100.0 mg/kg/injection, schedule: Q01DX009 (ip), vehicle: Klucel (hydroxypropylcellulose) (HPC)) is reported as 102 % of control. For the same molecule, the T/C (dose: 100.0 mg/kg/injection, schedule: Q04DX003 (ip), vehicle: Klucel (hydroxypropylcellulose) (HPC)) was 107 % of control, the T/C (dose: 200.0 mg/kg/injection, schedule: Q04DX003 (ip), vehicle: Klucel (hydroxypropylcellulose) (HPC)) was 98 % of control and the T/C (dose: 400.0 mg/kg/injection, schedule: Q04DX003 (ip), vehicle: Klucel (hydroxypropylcellulose) (HPC)) was 100 % of control.
